Results reported in US7566786B2, “Quinoline derivatives as phosphodiesterase inhibitors” (Glaxo Group Limited, priority 2003, dated 2009).
Structures can show the parent of a compound that is named as a salt.

Experiments:
PDE5 (human recombinant) = PDE5 (human recombinant) (Homo sapiens, UniProt O76074); experiment: Inhibition of PDE5 activity: Radioactive Scintillation Proximity Assay (SPA); type: biochemical; conditions: read-out: PDE5 mean pIC50 (converted)
Description: Human recombinant PDE5 is disclosed in K. Loughney et al., “Isolation and characterisation of cDNAs encoding PDE5A, a human cGMP-binding, cGMP-specific 3′,5′-cyclic nucleotide phosphodiesterase”, Gene, 1998, 216, 139-147.
(§1) 2. Inhibition of PDE3, PDE4B, PDE4D, PDE5 or PDE6 Activity: Radioactive Scintillation Proximity Assay (SPA)
(§2) The ability of compounds to inhibit catalytic activity at PDE4B or 4D (human recombinant), PDE3 (from bovine aorta), PDE5 (human recombinant) or PDE 6 (from bovine retina) was determined by Scintillation Proximity Assay (SPA) in 96-well format. Test compounds (preferably as a solution in DMSO, e.g. 2 microlitre (μl) volume) were preincubated at ambient temperature in Wallac Isoplates (code 1450-514) with PDE enzyme in 50 mM Tris-HCl buffer pH 7.5, 8.3 mM MgCl2, 1.7 mM EGTA, 0.05% (w/v) bovine serum albumin for 10-30 minutes. The enzyme concentration was adjusted so that no more than 20% hydrolysis of the substrate occurred in control wells without compound, during the incubation. For the PDE3, PDE4B and PDE4D assays [5′,8-^3H]adenosine 3′,5′-cyclic phosphate (Amersham Pharmacia Biotech, code TRK.559 or Amersham Biosciences UK Ltd, Pollards Wood, Chalfont St Giles, Buckinghamshire HP8 4SP, UK) was added to give 0.05 μCi per well and ˜10 nM final concentration. For the PDE5 and PDE6 assays [8-^3H]guanosine 3′,5′-cyclic phosphate (Amersham Pharmacia Biotech , code TRK.392) was added to give 0.05 μCi per well and ˜36 nM final concentration. Plates e.g. containing approx. 100 μl volume of assay mixture were mixed on an orbital shaker for 5 minutes and incubated at ambient temperature for 1 hour. Phosphodiesterase SPA beads (Amersham Pharmacia Biotech, code RPNQ 0150) suspended in buffer were added (˜1 mg per well) to terminate the assay. Plates were sealed and shaken and allowed to stand at ambient temperature for 35 minutes to 1 hour to allow the beads to settle. Bound radioactive product was measured using a WALLAC TRILUX 1450 Microbeta scintillation counter. […] Curves were analysed using
(§3) ActivityBase and XLfit (ID Business Solutions Limited, 2 Ocean Court, Surrey Research Park, Guildford, Surrey GU2 7QB, United Kingdom). Results were expressed as pIC50 values.

[1] = biological target: T1, PDE4B (human recombinant) (Homo sapiens, UniProt Q07343); experiment: Inhibition of PDE4B activity: Radioactive Scintillation Proximity Assay (SPA); type: biochemical; conditions: SPA or FP format not given; for IC50: read-out: PDE4B mean pIC50 (converted)
T1 construct: made in house
Description: Human recombinant PDE4B, in particular the 2B splice variant thereof (HSPDE4B2B), is disclosed in WO 94/20079 and also in M. M. McLaughlin et al., “A low Km, rolipram-sensitive, cAMP-specific phosphodiesterase from human brain: cloning and expression of cDNA, biochemical characterisation of recombinant protein, and tissue distribution of mRNA”, J. Biol. Chem., 1993, 268, 6470-6476. For example, in Example 1 of WO 94/20079, human recombinant PDE4B is described as being expressed in the PDE-deficient yeast Saccharomyces cerevisiae strain GL62, e.g. after induction by addition of 150 μM CuSO4, and 100,000×g supernatant fractions of yeast cell lysates are described for use in the harvesting of PDE4B enzyme.
as §1, §2, §3

T1 sequence (Q07343 1-564 isoform Q07343-2): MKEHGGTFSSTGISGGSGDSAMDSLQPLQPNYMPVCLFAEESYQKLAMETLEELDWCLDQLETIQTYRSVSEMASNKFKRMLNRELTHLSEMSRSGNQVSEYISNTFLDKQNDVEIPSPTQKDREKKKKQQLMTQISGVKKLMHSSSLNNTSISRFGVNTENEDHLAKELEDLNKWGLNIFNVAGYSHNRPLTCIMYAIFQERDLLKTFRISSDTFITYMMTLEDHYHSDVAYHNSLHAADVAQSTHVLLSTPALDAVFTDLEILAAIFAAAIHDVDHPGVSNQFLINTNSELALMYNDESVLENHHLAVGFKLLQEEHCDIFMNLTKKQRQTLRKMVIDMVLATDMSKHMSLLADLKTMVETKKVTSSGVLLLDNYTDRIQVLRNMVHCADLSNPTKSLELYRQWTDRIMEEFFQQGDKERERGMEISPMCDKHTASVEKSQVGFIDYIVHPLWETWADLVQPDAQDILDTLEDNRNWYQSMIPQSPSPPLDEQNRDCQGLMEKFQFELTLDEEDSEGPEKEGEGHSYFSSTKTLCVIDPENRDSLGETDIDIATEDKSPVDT

| Compound | IC50 (PDE5 (human recombinant)) [µM] | IC50 [1] [nM] | PDE4B mean pIC50 [1] |
| --- | --- | --- | --- |
| COc1cccc(Nc2c(C(N)=O)cnc3ccc(S(C)(=O)=O)cc23)c1 [Example 27, 4-{[3-(methyloxy)phenyl]amino}-6-(methylsulfonyl)-3-quinolinecarboxamide] | 15.8 | – | – |
| CN(C)c1cccc(Nc2c(C(N)=O)cnc3ccc(S(=O)(=O)C4CCCC4)cc23)c1 [Example 92] | > 31.6 | 20 | – |
| COc1ccc(S(=O)(=O)c2cc(C)c3ncc(C(N)=O)c(Nc4cccc(OC)c4)c3c2)cc1 [Example 265, 8-methyl-4-{[3-(methyloxy)phenyl]amino}-6-{[4-(methyloxy)phenyl]sulfonyl}-3-quinolinecarboxamide] | 6.31 | 0.00501 | – |
| Cc1cc(S(C)(=O)=O)cc2c(Nc3cccc4c3CCO4)c(C(N)=O)cnc12 [Example 307, 4-(2,3-dihydro-1-benzofuran-4-ylamino)-8-methyl-6-(methylsulfonyl)-3-quinolinecarboxamide] | > 25.1 | 0.0316 | – |
| Cc1cc(S(C)(=O)=O)cc2c(Nc3ccc4cnn(C)c4c3)c(C(N)=O)cnc12 [Example 309, 8-methyl-4-[(1-methyl-1H-indazol-6-yl)amino]-6-(methylsulfonyl)-3-quinolinecarboxamide] | > 12.6 | 0.0794 | – |
| Cc1cc(S(C)(=O)=O)cc2c(Nc3cccc(C#N)c3)c(C(N)=O)cnc12 [Example 312, 4-[(3-cyanophenyl)amino]-8-methyl-6-(methylsulfonyl)-3-quinolinecarboxamide] | > 31.6 | – | 9.4 |
| Cc1cccc(Nc2c(C(N)=O)cnc3c(Cl)cc(S(C)(=O)=O)cc23)c1 [Example 369, 8-chloro-4-[(3-methylphenyl)amino]-6-(methylsulfonyl)-3-quinolinecarboxamide] | 7.94 | 0.316 | – |
| COc1cccc(Nc2c(C(N)=O)cnc3c(C)cc(S(=O)(=O)c4ccc(OC)c(OC)c4)cc23)c1 [Example 380, 6-{[3,4-bis(methyloxy)phenyl]sulfonyl}-8-methyl-4-{[3-(methyloxy)phenyl]amino}-3-quinolinecarboxamide] | > 0.1 | 0.00398 | – |
| COc1cccc(Nc2c(C(N)=O)cnc3c(C)cc(S(=O)(=O)c4cccc(C(=O)N(C)C)c4)cc23)c1 [Example 399, 6-({3-[(dimethylamino)carbonyl]phenyl}sulfonyl)-8-methyl-4-{[3-(methyloxy)phenyl]amino}-3-quinolinecarboxamide] | 2.51 | < 0.00251 | – |
| COc1cccc(Nc2c(C(N)=O)cnc3ccc(S(=O)(=O)c4cccc(C(=O)N(C)C)c4)cc23)c1 [Example 400, 6-({3-[(dimethylamino)carbonyl]phenyl}sulfonyl)-4-{[3-(methyloxy)phenyl]amino}-3-quinolinecarboxamide] | > 10 | 0.01 | – |
| Cc1cc(S(=O)(=O)c2cccc(C(=O)N(C)C)c2)cc2c(Nc3cccc(C#N)c3)c(C(N)=O)cnc12 [Example 408, 4-[(3-cyanophenyl)amino]-6-({3-[(dimethylamino)carbonyl]phenyl}sulfonyl)-8-methyl-3-quinolinecarboxamide] | – | 0.00398 | – |
| Cc1cc(S(=O)(=O)C2CCN(C(=O)c3ccco3)CC2)cc2c(Nc3cccc4c3CCO4)c(C(N)=O)cnc12 [Example 446, 4-(2,3-dihydro-1-benzofuran-4-ylamino)-6-{[1-(2-furanylcarbonyl)-4-piperidinyl]sulfonyl}-8-methyl-3-quinolinecarboxamide] | > 31.6 | 0.00501 | – |
| Cc1cc(S(=O)(=O)CCNS(C)(=O)=O)cc2c(Nc3cccc4c3CCO4)c(C(N)=O)cnc12 [Example 457, 4-(2,3-dihydro-1-benzofuran-4-ylamino)-8-methyl-6-({2-[(methylsulfonyl)amino]ethyl}sulfonyl)-3-quinolinecarboxamide] | > 3.16 | 0.01 | – |
| Cc1cc(S(C)(=O)=O)cc2c(Nc3cc(F)cc(F)c3)c(C(N)=O)cnc12 [Example 502, 4-[(3,5-difluorophenyl)amino]-8-methyl-6-(methylsulfonyl)-3-quinolinecarboxamide] | > 10 | 1.26 | – |
| COc1cccc(Nc2c(C(N)=O)cnc3c(C)cc(S(=O)(=O)c4cncc(C(=O)N(C)C)c4)cc23)c1 [Example 546, 6-({5-[(dimethylamino)carbonyl]-3-pyridinyl}sulfonyl)-8-methyl-4-{[3-(methyloxy)phenyl]amino}3-quinolinecarboxamide hydrochloride] | 20 | 0.02 | – |
